These results are taken from patent US20090036437A1, “PHARMACEUTICAL COMPOSITION COMPRISING PHENOXAZINIUM COMPOUND AS AN ACTIVE INGREDIENT” (priority 2005, published 2009).

In test [1] the test system is Trypanosoma cruzi (Tulahuen C2C4 strain). The experiment in a line: in vitro growth-inhibiting screening assay, protozoa of American trypanosomiasis. The class given is cell-based. Particulars: for EC50: in infected rat L6 cells, 96 h, CPRG/Nonidet, read-out: 50% growth-inhibiting concentration (nM) Trypanosoma cruzi. The method, then: The test was done using a trypomastigote and an amastigote of the protozoa of Trypanosoma cruzi (Tulahuen C2C4 strain) present in the infected rat L6 cells. The L6 cells were cultured in RPMI-1640 medium supplemented with 1% of […] (200 mM) and 10% of fetal calf serum under CO2 concentration of 5%, at 37° C.
A test sample was prepared by dissolving the test compounds according to the present invention and a positive control drug (benznidazole) in DMSO to a predetermined concentration. Culture medium containing the protozoa of 5×10^3 was added into each well of 96-well culture plate and cultured for 48 hours. After the medium was exchanged, the test sample comprising the predetermined amount of the test compound, and DMSO without the test compound were added into each well in duplicate.
After incubation of the culture plate for 96 hours in an incubator, a growth-inhibiting activity was assayed as follows. CPRG/Nonidet (50 μL) was added to each well followed by a further 2˜6-hour culture. The culture plate was then attached to an absorption micro titer plate reader, the absorbance at 540 nm was detected to calculate an infection ratio of the protozoa with respect to a group treated with the test sample and a control group. A growth-inhibiting ratio was then calculated from the resulting infection ratio in accordance with the following equation to determine 50% growth-inhibiting concentration (EC50).
Growth-inhibiting ratio (%)=[1−(b−a)/(c−a)]×100 • a: Initial infection ratio; • b: Infection ratio of the test sample group; and • c: Infection ratio of the control group.
A selective toxicity coefficient, which is used as an index for the selective toxicity for the protozoa of American trypanosomiasis, was calculated by the following equation, and the pharmaceutical effect was determined.
A selective toxicity coefficient=(EC50 value of the test sample for rat L6 cell)/(EC50 value of the test sample for the protozoa of American trypanosomiasis).

The subject of test [2] is Plasmodium Falciparum K1 strain. The experiment in a line: in vitro growth-inhibiting screening assay, chloroquine-resistant falciparum malaria. It counts as cell-based. As to conditions: for EC50: chloroquine-resistant strain, 72 h culture, 3H-hypoxanthine, read-out: 50% growth-inhibiting concentration (nM) P. falciparum K1. The method, then:
Plasmodium Falciparum K1 strain was used as a chloroquine-resistant protozoa of falciparum malaria. RMI-1640 sterilized by filtration was supplemented with human serum of a final concentration of 5% to be used as a culture medium. The malaria protozoa were cultured under O2 concentration of 3%, CO2 concentration of 4%, N2 concentration of 93% at 37° C.
A test sample was prepared by dissolving the test compounds according to the present invention and a positive control drug (chloroquine) in DMSO to a predetermined concentration. The erythrocytes infected with the cultured malaria protozoa were collected by centrifugation and so diluted with non-infected erythrocytes to have an initial infection ratio of 0.15%. The hematocrit value was then 2.5%. Culture mixture of the above malaria-infection culture medium (200 μL) was placed into each well of a 96-well culture plate, and the test sample comprising the predetermined amount of the test compound, and DMSO without the test compound were added to the wells in duplicate.
After culture for 48 hours at 37° C., hypoxanthine labeled with radioactive tritium (^3H) of 0.5 μCi was added to each well. After the culture in the same conditions for further 24 hours, the sample was taken on a glass fiber filter and washed with distilled water. Intensity of radiation was measured by means of plate liquid scintillation counter (Wallac Co.), and an infection ratio of the protozoa of malaria was calculated with respect to a group treated with the test sample and the control. A growth-inhibiting ratio was then calculated from the resulting infection ratio in accordance with the following equation to determine 50% growth-inhibiting concentration (EC50).
Growth-inhibiting ratio (%)=[1−(b−a)/(c−a)]×100 • a: Initial infection ratio; • b: Infection ratio of the test sample group; and • c: Infection ratio of the control group. In vitro Growth-Inhibiting Assay of Rat L6 Cells
Anti-malaria effect of the samples was assessed by their EC50 values for the chloroquine-resistant protozoa of falciparum malaria and the rat L6 cell. A chemotherapy coefficient, which is used as an index for the selective toxicity for the chloroquine-resistant protozoa of falciparum malaria was calculated by the following equation, and the pharmaceutical effect was determined.
Chemotherapy coefficient=(EC50 value of the test sample for rat L6 cell)/(EC50 value of the test sample for the chloroquine-resistant protozoa of falciparum malaria)

Test [3] has as its system Plasmodium berghei NK65 strain. The experiment in a line: in vivo 4-day suppressive test, intraperitoneal administration, mouse infected with malaria. Particulars: 4 days. The protocol: This test was carried out in accordance with 4-day suppressive test that is a general in vivo test for the activity of an anti-malaria compound. Rodent malaria protozoa (Plasmodium berghei NK65 strain) were used in this test. Infected blood was prepared by infection with intraperitoneal administration into ICR male mouse (5 weeks age; SPF) and passage culture (subculture) thereafter. Blood was drawn from the vein of a tail of the moue infected with malaria, and its infection ratio was determined. After it was confirmed that the infection ratio had been increased up to an appropriated level (10˜20%), the blood infected with malaria was drawn from the heart of the mouse. The infection ratio and number (cells/mL) of erythrocytes were determined. An uninfected mouse (ICR male, 5 weeks age) was then infected with an injection of the infected erythrocytes so diluted with PBS as to comprise the protozoa of […] per dose (0.2 mL) into the vein of its tail.
A test sample was prepared by dissolving the test compounds according to the present invention into physiologic saline (Otsuka Pharmaceuticals Industries) to a predetermined concentration. In the case where the compound was insoluble in water, it was dissolved into DMSO or Tween 20 to prepare the test sample. A control group (no drug-administration group) was treated only with physiologic saline. […]
One group consisted of five mice. The intraperitoneal administration of the test sample started after two hours from the infection with malaria and continued for successive 4 days with a 24-hour interval. After 24 hours from the last administration, blood was drawn from the tail of the infected mouse to prepare a thin-layer smear, and the number of the erythrocytes infected with the malaria protozoa under a microscope with respect to the control group and the test sample groups. Parasitemia, i.e., the infection ratio with the malaria protozoa, was obtained by calculating an average value of the medium three mice except the two mice showing a maximum or minimum inhibition level. A cure rate (suppression) was then calculated from the resulting parasitemia in accordance with the following equation.
Cure rate: suppression (%)=(b−a)/b×100 • a: Infection ratio of the test sample group; and • b: Infection ratio of the control group.

The mark [4] stands for this setting: Table 5, 2.5 mg/kg/day intraperitoneal.
Setting [5] is: Table 5, 5.0 mg/kg/day intraperitoneal.
Setting [6] is: Table 5, 10 mg/kg/day intraperitoneal.
[7] abbreviates: Table 5, 20 mg/kg/day intraperitoneal.

Like-named read-outs stand apart in the source and are kept apart here.

With `CCN(CC)c1ccc2nc3ccc(=[N+](CC)CC)cc-3oc2c1.[Cl-]` [A-1 (60% purity)], the EC50 in test [1] worked out at 149 nM; in test [2], 4.6 nM. In addition, the “Parasitaemia suppression (%)” value in test [3] (5 mg/kg/day intraperitoneal) was 46.3%; in test [3] (setting [4]), 30.5%; in test [3] (setting [5]), 46.3%; in test [3] (setting [6]), 82.4%; in test [3] (setting [7]) it was 95.8%.
In the case of `CCN(CC)c1ccc2nc3ccc(=[N+](CC)CC)cc-3oc2c1.[Cl-]` [A-1 (>95% purity)], the EC50 in test [1] was found to be 15 nM; in test [2] it was 2.1 nM. Also, the “Parasitaemia suppression (%)” value in test [3] (5 mg/kg/day intraperitoneal) is 79.2%.
For `CN(C)c1ccc2nc3ccc(=[N+](C)C)cc-3oc2c1.CN(C)c1ccc2nc3ccc(=[N+](C)C)cc-3oc2c1.[Cl-].[Cl-].[Cl][Zn][Cl]` [Compound A-3], the EC50 in test [1] was 457 nM; in test [2], 15.6 nM. Besides, the “Parasitaemia suppression (%)” value in test [3] (5 mg/kg/day intraperitoneal) is 17.1%.
Consider `CC[N+](CC)=c1ccc2nc3ccc(N(C)C)cc3oc-2c1` [Compound A-4], for which the Selective toxicity in test [1] (EC50 rat L6 cell / EC50 protozoa of American trypanosomiasis) was determined as 22; in test [2] (EC50 rat L6 cell / EC50 P. falciparum K1), 1200. Also, the EC50 in test [1] (Trypanosoma cruzi, TULAHUEN) worked out at 211 nM; in test [2] (Plasmodium falciparum, K1), 2.1 nM. The “Parasitaemia suppression (%)” value in test [3] (5 mg/kg/day intraperitoneal) is 85.3%; in test [3] (setting [4]), 58.7%; in test [3] (setting [5]) it was 85.3%; in test [3] (setting [6]), 99.9%; in test [3] (setting [7]), over 99.99%.
For `CCCC[N+](CCCC)=c1ccc2nc3ccc(N(CC)CC)cc3oc-2c1.[Cl-]` [Compound A-6], the EC50 in test [1] was 24 nM; in test [2], 2.4 nM. Moreover, the “Parasitaemia suppression (%)” value in test [3] (5 mg/kg/day intraperitoneal) stood at 83.1%.
In the case of `CCCC[N+](CCCC)=c1ccc2nc3ccc(N(C)C)cc3oc-2c1.[O-][Cl+3]([O-])([O-])[O-]` [Compound A-7], the EC50 came out at 22 nM in test [1] and 1.5 nM in test [2]. Also, the “Parasitaemia suppression (%)” value in test [3] (5 mg/kg/day intraperitoneal) was 90.3%.
